Experimental data from publication PMC4820820, “CETSA screening identifies known and novel thymidylate synthase inhibitors and slow intracellular activation of 5-fluorouracil” (Nature Communications, 2016).

Experiments:
TS in K562 cell lysates = target: T1, TS in K562 cell lysates (Homo sapiens, UniProt P04818); experiment: Western blot CETSA on K562 cell lysates; assay type: binding
T1 construct: screening in live, non-engineered cells expressing thymidylate synthase; endogenous in cells; host or cells: K562 (human myelogenous leukemia) cells
Method: For the cell lysate thermal shift experiments, cultured K562 cells were harvested and washed with Hank's Balanced Salt Solution. The cells were diluted in lysis buffer supplemented with complete protease inhibitor cocktail. The cell suspensions were freeze-thawed three times using liquid nitrogen and passed through a 27″ gauge needle five times. The soluble fraction (lysate) was separated from the cell debris by centrifugation at 20,000 × g for 20 min at 4 °C. For the thermal aggregation curve experiments cell lysates were diluted with lysis buffer supplemented with 200 μM dUMP and divided into two aliquots, with one aliquot being treated with ligand and the other aliquot with vehicle (control). […] The supernatants containing the remaining soluble proteins were transferred to new 0.2 ml microtubes and analyzed by sodium dodecyl sulfate polyacrylamide gel electrophoresis (SDS-PAGE) followed by western blot analysis.
NuPage Novex Bis-Tris 4–12% polyacrylamide gels with NuPAGE MES SDS running buffer (Life Technologies) were used for separation of proteins in the samples. […] Chemiluminescence intensities were detected and quantified using a ChemiDoc XRS+ imaging system (Bio-Rad) with Image Lab software (Bio-Rad).

TS [1] = target: T2, TS (Homo sapiens, UniProt P04818); experiment: Surface plasmon resonance; assay type: binding; parameters: His6 tag with TEV site (vector-encoded by pNIC28-Bsa4); made in house; host or cells: Rosetta BL21-DE3 Escherichia coli; conditions: 200 μM dUMP, 20 nM to 10 μM compound; signal does not saturate
Method: A concentration series (20 nM to 10 μM) of CBK115334 was injected over the prepared surface for 60 s and allowed to dissociate for 60 s with a flow rate of 70 μl min^−1 at 25 °C. The assay buffer was 20 mM HEPES, 150 mM NaCl, pH 7.5 and 0.005% Tween-20 supplemented with 1% DMSO and 200 μM dUMP. Response data was processed using the BIAevaluation software. Responses were double referenced and solvent-corrected. The data sets were fitted to 1:1 steady-state model for determination of binding constants.
Target sequence in this assay (P04818 whole entry): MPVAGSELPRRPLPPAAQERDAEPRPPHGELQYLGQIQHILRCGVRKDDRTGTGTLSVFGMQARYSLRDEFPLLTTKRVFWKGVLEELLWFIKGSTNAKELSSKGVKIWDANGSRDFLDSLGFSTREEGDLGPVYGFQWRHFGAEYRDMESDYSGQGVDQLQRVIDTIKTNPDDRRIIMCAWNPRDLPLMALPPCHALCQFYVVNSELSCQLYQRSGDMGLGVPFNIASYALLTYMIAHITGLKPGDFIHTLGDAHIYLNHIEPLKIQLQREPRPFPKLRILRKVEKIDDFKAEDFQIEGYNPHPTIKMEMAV

TS [2] = target: T2, TS; experiment: Western blot ITDRF CETSA of decitabine with or without DCK inhibitor DI-82, K562 cells; assay type: cell-based; parameters: screening in live, non-engineered cells expressing thymidylate synthase; endogenous in cells; host or cells: K562 (human myelogenous leukemia) cells
Method: K562 cells were treated with each respective compound concentrations and one vehicle as control in 100 μl aliquots in 0.2 ml tubes for 2 h in an incubator at 37 °C and 5% CO2. The cell aliquots were heated at 50 °C and analyzed with western blot following the procedure described above.
For the decitabine metabolism, decitabine was serially diluted to generate an 11 point dose–response curve and an […] experiment was performed as described above in absence and presence of 200 μM of the DCK inhibitor DI-82 (referred to as 12R in the main text of the original publication and DI-82 in the Supplementary Material)[34].
NuPage Novex Bis-Tris 4–12% polyacrylamide gels with NuPAGE MES SDS running buffer (Life Technologies) were used for separation of proteins in the samples. Proteins were transferred to nitrocellulose membranes using the iBlot2 blotting system (Life Technologies). Primary antibodies anti-TS (D5B3) XP (Cell Signaling), anti-dCK (sc-393099), anti-β-actin (sc-69879); secondary goat anti-mouse HRP-IgG (sc-2055) and bovine anti-rabbit HRP-IgG (sc-2374) antibodies (Santa Cruz Biotechnology, Santa Cruz, CA, USA) were used for immunoblotting. […] Chemiluminescence intensities were detected and quantified using a ChemiDoc XRS+ imaging system (Bio-Rad) with Image Lab software (Bio-Rad).
Target sequence in this assay (P04818 2-313 limits assumed): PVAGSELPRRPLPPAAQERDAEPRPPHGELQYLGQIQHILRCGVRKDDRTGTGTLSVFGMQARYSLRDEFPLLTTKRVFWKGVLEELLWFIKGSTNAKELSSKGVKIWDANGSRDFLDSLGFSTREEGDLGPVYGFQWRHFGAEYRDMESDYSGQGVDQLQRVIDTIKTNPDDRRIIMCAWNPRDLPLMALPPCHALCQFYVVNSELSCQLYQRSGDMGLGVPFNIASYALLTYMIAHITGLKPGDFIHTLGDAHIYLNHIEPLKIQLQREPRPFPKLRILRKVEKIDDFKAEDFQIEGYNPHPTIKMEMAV

[3] = target: T3, human thymidylate synthase (TS) (Homo sapiens, UniProt P04818); experiment: ITDRF CETSA at 50 °C, AlphaScreen detection, live K562 cells; assay type: cell-based; conditions: 2 h preincubation, 50 °C, unit taken from curve axis log [cmp] (M), read-out: ITDRF CETSA (hit confirmation)
T3 construct: screening in live, non-engineered cells expressing thymidylate synthase; endogenous in cells; host or cells: K562 (human myelogenous leukemia) cells
Method: For the […] experiments 11-point dose-response curves with three-fold difference in concentration between wells were generated using the Bravo liquid handling system (all serial dilutions were done in 100% DMSO). […] The concentration of DMSO was 0.5% in all samples. […] The assay ready plates were prepared as outlined above for the screen.
The screen procedure started with the addition of 5 μl of a suspension of K562 cells at a density of 10 million cells per ml to all wells of a 384 well hardshell PCR plate (HSR480, BIORAD) using an electronic multichannel pipette (Biohit). […] For the time-course experiments the incubation times were altered to include also 10 min, 30 min and 6 h. […] After the incubation step the plates were transiently heated at 50 °C for 3 min followed by a controlled cooling to 20 °C for 1 min using a real-time PCR machine (LightCycler480 system, Roche). Plate handling was then as described above for the thermal aggregation experiments. The data were analyzed using microsoft excel and GraphPad Prism 6.
A calculation of the average and standard error of means for each set of controls also allowed an illustration of how these responses varied over the 32 screening plates. The Z′ factor[38] is commonly used as a measure of how well the assay separates between the controls and this was calculated as described based on the calculated averages and standard deviations of the controls on a per plate basis. For the Tagg shift and the […] experiments the data were analyzed in GraphPad Prism using the Boltzmann sigmoid equation and the saturation binding curve (rectangular hyperbola; binding isotherm) function, respectively. As already discussed[14] these methods make use of equilibrium models for data analysis although the methodology depends on the irreversible aggregation of denatured material. For this reason we refer to the observed responses as apparent and isothermal dose-response fingerprints and are careful with any quantitative interpretations, being well aware of their dependency on experimental conditions. Experiments are on-going to address the quantitative interpretation of CETSA data.

T1 sequence (P04818 2-313 limits assumed): as above
T3 sequence (P04818 2-313 limits assumed): as above

Row | Compound | Tagg shift of TS in K562 cell lysates (TS in K562 cell lysates; 200 μM compound, lysate with 200 μM dUMP) [°C] | binding to TS by surface plasmon resonance (steady state affinity) (TS [1]) | stabilization of TS (ITDRFCETSA) (TS [2]; in absence of DI-82, K562 cells) | ability to bind TS (ITDRFCETSA) (TS [2]; in presence of 200 μM DI-82, K562 cells) | stabilization of TS in treated K562 lysates (TS in K562 cell lysates; 200 µM decitabine) | EC50 [3] [M]
1 | Cc1cc(O)nc2sc(C(=O)c3ccccc3)c(N)c12 [CBK115334, 3-amino-2-benzoyl-4-methylthieno(2,3-b)pyridin-6-ol] | 3.7 | low μM range | – | – | – | –
2 | Nc1ncn([C@H]2C[C@H](O)[C@@H](CO)O2)c(=O)n1 [decitabine, 5-Aza-deoxycytidine] | – | – | Dose-dependent stabilization | completely blunted | not stabilized | 6.87e-08
